We go through eleven sequences from patent publication US20140363889A1, “METHOD FOR PRODUCING MULTIPOLAR CELL” (TOAGOSEI CO., LTD., priority 2011, published 2014).

What all share (assay type): cell-based
In experiment [1] the test system is human alveolar basal epithelial adenocarcinoma cells, A549. Briefly: Multipolarity-inducing activity assay 3 (A549 cells synchronized in G2 phase (or M phase)). As to conditions: 10 μM peptide, number of M-phase cells 100. The method, then: Some of the sample peptides obtained in Example 1 were tested for multipolarity-inducing activity against target cultured tumor cells. As the tumor cells tested, cells forming a […] (human alveolar basal epithelial adenocarcinoma cells, A549) were used. The cell line was cultured in the same manner as Example 2 described above. The resulting cultured tumor cells were synchronized in the G2 phase (or M phase) in the same manner as Example 3 described above. Similarly to Examples 2 and 3 described above (the number of M-phase cells was 100 herein), the presence of multipolarity was observed by immunofluorescence under fluorescence microscope.

The subject of experiment [2] is HeLa cell line (HeLa S3). In words: Multipolarity-inducing activity assay 1 (cells synchronized in G1 phase by double thymidine block). Conditions: 10 μM peptide, 6 hours incubation; for Multipolar level (%): % multipolar cells relative to M-phase cells; for Number of multipolar cells: count among the M-phase cells observed. On the procedure:
Some of the sample peptides obtained in Example 1 were tested for multipolarity-inducing activity against target cultured tumor cells. Details of the assay are as described below.
As the tumor cells tested, a HeLa cell line (HeLa S3) was used. The cell line was cultured beforehand in a DMEM medium (i.e. Dulbecco MEM medium (DMEM medium, a Gibco product) containing 10% fetal bovine serum (FBS, a Gibco product), 2 mM of L-glutamine, 50 unit/mL of penicillin, and 50 μg/mL of streptomycin), and seeded at about 3×10^4 cells per well in an 8-well slide glass. Thymidine was added to the culture medium to a final concentration of 2.5 mM. Incubation was carried out at 37° C. under 5% CO2 for 16 hours. The culture medium was exchanged to remove thymidine and incubation was carried out for 8 more hours. Subsequently, thymidine was added again to a final concentration of 2.5 mM and incubation was carried out for 16 hours.
By such double thymidine block, the cells being cultured were synchronized in the G1 phase of the cell cycle. After such synchronization treatment, the culture medium was exchanged to remove thymidine and incubation was carried out for 2 more hours. Subsequently, one of the sample peptides was added to each well. In this example, one of Samples 1, 4, 5, 7, 9 and 11 was added to a peptide concentration in the well of 10 μM.
After a sample peptide was added as described above, the 8-well slid glass was incubated under the aforementioned conditions for 6 hours.
After 6 hours of incubation, the presence of multipolarity was observed by immunofluorescence under fluorescence microscope. In particular, after 6 hours of incubation following the addition of a sample peptide, the cultured cells were subjected to nuclear staining with DAPI (4′,6-diamidino-2-phenylindole), and using α-tubulin as a marker for spindles, the cells were tested for the presence of tubulin (i.e. the presence of spindles) by immunofluorescence with an anti-tubulin antibody (primary antibody) to identify the tubulin and a fluorescent dye (ALEXA FLUOR(registered trademark) 555)-labeled secondary antibody to identify the primary antibody. In addition, using centrin-2 as a marker for centrosomes (centrioles), the cells were tested for the presence of centrin-2 (i.e. the presence of centrosomes) by immunofluorescence with an anti-centrin-2 antibody (primary antibody) to identify the centrin-2 and a fluorescent dye-labeled secondary antibody to identify the primary antibody.

In experiment [3] the test system is HeLa cell line (HeLa S3). Briefly: Multipolarity-inducing activity assay 2 (cells synchronized in G2 phase (or M phase) by nocodazole). Conditions: 10 μM peptide, 4 hours with peptide + 2 hours without; for Multipolar level (%): % multipolar cells relative to M-phase cells; for Number of multipolar cells: count among 60 M-phase cells. The method, then: The same sample peptides as those used in Example 2 above were used and tested for multipolarity-inducing activity against cultured tumor cells synchronized in the G2 phase (or M phase). Details of the assay are as described below.
As the tumor cells tested, a HeLa cell line (HeLa S3) was used. The cell line was cultured under the same conditions as Example 2 and seeded at about 3×10^4 cells per well in an 8-well slide glass. Thymidine was added to the culture medium to a final concentration of 2.5 mM. Incubation was carried out at 37° C. under 5% CO2 for 18 hours. The culture medium was exchanged to remove thymidine and incubation was carried out for 6 more hours. Subsequently, nocodazole was added to a final concentration of 0.1 μg/mL and incubation was carried out for 16 hours. By such addition of nocodazole, the cells being cultured were synchronized in the G2 phase (M phase) of the cell cycle.
After the 16 hours of incubation, without exchanging the culture medium (i.e. with nocodazole being contained), one of the sample peptides was added to each well to a peptide concentration in the well of 10 μM and incubation was carried out for 4 hours. Subsequently, the culture medium was exchanged and incubation was continued for 2 more hours without nocodazole or the sample peptide.
After the 2 hours of incubation, in the same manner as Example 2, the presence of multipolarity was observed by immunofluorescence under fluorescence microscope.

Turning to EFEYFHPATFRL [Sample 8], the “Multipolar level (%)” value in experiment [1] came to 26%.

Consider GAVTYSRISGQY [Sample 10], for which, in experiment [1], the “Multipolar level (%)” value was determined as 29%.

On to GPHHYWYHLRLP [Sample 4], for which the “Multipolar level (%)” value amounted to 13.6% in experiment [2], 48.3% in experiment [3] and 28% in experiment [1]. In addition, the “Number of multipolar cells” value came out at 14 in experiment [2] and 29 in experiment [3].

As for GPHLGMNQRRRP [Sample 9], the “Multipolar level (%)” value amounted to 10.4% in experiment [2], 55.0% in experiment [3] and 27% in experiment [1]. Further, the “Number of multipolar cells” value in experiment [2] was 11; in experiment [3], 33.

On to NMTTYPMHNNTV [Sample 6], for which the “Multipolar level (%)” value in experiment [1] is given as 32%.

Consider NMTTYPMHNNTVKKRTLRKNDRKKR [Sample 16], for which the “Multipolar level (%)” value in experiment [1] was determined as 33%.

As to QSPVNHHYHYHI [Sample 5], the figures for the “Multipolar level (%)” value in experiment [2], in experiment [3] and in experiment [1] were 10.8%, 41.7% and 34%, respectively. The “Number of multipolar cells” value is recorded as 12 in experiment [2] and 25 in experiment [3].

With SLLPHSNHAKHY [Sample 7], the “Multipolar level (%)” value in experiment [2] is 13.0%; in experiment [3], 43.3%; in experiment [1], 28%. Also, the “Number of multipolar cells” value in experiment [2] worked out at 13; in experiment [3] it was 26.

Consider SVSVGMKPSPRP [Sample 1], for which the “Multipolar level (%)” value in experiment [2] stood at 11.5%; in experiment [3] it was 40.0%; in experiment [1] it was 30%. In addition, the “Number of multipolar cells” value in experiment [2] worked out at 12; in experiment [3] it was 24.

As to SVSVGMKPSPRPKKRTLRKNDRKKR [Sample 11], the “Multipolar level (%)” value in experiment [2] is 12.7%; in experiment [3], 41.7%; in experiment [1] it was 32%. For the same sequence, the results for the “Number of multipolar cells” value in experiment [2] and in experiment [3] were 13 and 25, respectively.

As for TPSLPPTMFRLT [Sample 3], the “Multipolar level (%)” value in experiment [1] is recorded as 32%.
